# From patent publication US20250100993A1, “2-SUBSTITUTED THIAZOLE HSD17B13 INHIBITORS AND USES THEREOF” (Inipharm, Inc., priority 2022, published 2025)
# Assays:
# HSD17B13 = HSD17B13 (Homo sapiens (Human), UniProt Q7Z5P4); assay: LC/MS estrone detection assay for HSD17B13 activity (estradiol to estrone); format: biochemical; conditions: estradiol substrate; for Ki: LCMS, read-out: HSD17B13 Inhibition_Estradiol Substrate_LCMS: Ki; for IC50: LC-MS/MS estrone detection
# Protocol: The liquid chromatography/mass spectrometry (LC/MS) estrone detection assay monitors the conversion of estradiol to estrone by HSD17B13. This assay was undertaken in a 96 wp format (Eppendorf deep well Plate 96/500) in an 80 μl reaction volume containing: 4 μM of Estradiol (E2; Cayman; Ser. No. 10/006,315), 6 mM NAD+(Sigma; #N0623) and 30 nM HSD17B13 enzyme (in-house; E. coli expressed His-tagged, purified, soluble protein) in a reaction containing 1M potassium phosphate buffer pH 7.4, with 0.5% vehicle (DMSO). Reactions were incubated for 2 hours at 26.5° C., and estradiol (E2) conversion to estrone (E1) was quantitated by LC-MS/MS based analyte detection for both E2 and E1 using LCMS grade reagents.
# Reactions were terminated by the addition of two volumes of acetonitrile (MeCN; LCMS grade; CAS #75/05/8) containing deuterated (D4)-E1 used as internal standard (Clear Synth; #CS-T-54273; 500 ng/mL final concentration). Samples were applied to pre-prepared Bond Elut-C18 extraction cartridges (3 mL; Agilent; Ser. No. 12/102,028), washed and eluted in MeCN. Eluates were dried under nitrogen and re-suspended in 60% methanol (LCMS grade methanol; CAS #67/56/1) before submission for analysis. Aqueous linearity for E2 and E1 were included for quantification.
# Analysis of samples was undertaken on a XBridge BEH C18 column (Waters; #186003033) using 0.1% Diethyl Amine in MeCN (mobile phase A; DEA CAS #109-89-7) and 0.1% Diethyl Amine in milli-Q water (mobile phase B) in a 3 min gradient allowing 25% B. Analytes were detected in negative mode using MRM analysis, with E2 having a RT of 1.85 min and E1 having a RT of 2 min. Activity of the enzyme, in the absence of NAD+, was used to evaluate specificity of conversion. Enzyme activity in the presence of test samples was expressed as a percentage of the uninhibited enzyme activity, and plotted versus inhibitor concentration. Non-linear regression was performed using a four-parameter logistic model and GraphPad Prism software (GraphPad Software, La Jolla, CA). All assessments were undertaken in duplicate evaluations and pooled during extraction process and subsequently injected as duplicates for LC-MS/MS analysis.
# HSD17B14 = HSD17B14 (Homo sapiens (Human), UniProt Q9BPX1); assay: LC/MS estrone detection assay for HSD17B14 activity (estradiol to estrone); format: biochemical; conditions: selectivity for HSD17B13 over HSD17B14
# Protocol: The liquid chromatography/mass spectrometry (LC/MS) estrone detection assay monitors the conversion of estradiol to estrone by HSD17B14. This assay was undertaken in a 96 well plates (Eppendorf deep well), in an 80 μl reaction volume containing: 8 μM of estradiol (E2; Cayman); 4 mM NAD+(Sigma); 120 nM HSD17B14 enzyme (in-house E. coli expressed His-tagged, purified, soluble protein); 1M potassium phosphate buffer pH 7.4, and 1.2% vehicle (DMSO). Reactions were incubated for 2 hours at 37° C. Estradiol (E2) conversion to estrone (E1) was quantitated by LC-MS/MS based analyte detection for E1 using LCMS grade reagents.
# Reactions were terminated by the addition of two volumes of acetonitrile (MeCN; LCMS grade) containing deuterated (D4)-E1 used as internal standard (Clear Synth; 500 ng/mL final concentration). Samples were applied to pre-prepared Bond Elut-C18 extraction cartridges (3 mL; Agilent). The cartridges were washed with 1.5 mL water followed by 1.5 mL 5% aqueous methanol, and dried for 5 minutes under vacuum. They were then eluted with 4.5 mL MeCN. The eluates were dried under nitrogen and re-suspended in 200 μL of 60% methanol (LCMS grade) before submission for analysis. Standard curves of E2 and E1 in 4% DMSO were included for quantification.
# Analysis of samples was performed on a XBridge BEH C18 column (Waters) using 0.1% Diethyl Amine in MeCN (mobile phase A) and 0.1% Diethyl Amine in milli-Q water (mobile phase B) in a 3 min gradient from 0-25% B. Analytes were detected in negative mode using MRM analysis, with E2 having a RT of 1.89 min and E1 having a RT of 2.07 min. Activity of the enzyme in the absence of NAD+ was used to evaluate specificity of conversion. Enzyme activity in the presence of test samples was expressed as a percentage of the uninhibited enzyme in the presence of 1.2% DMSO vehicle only, and plotted versus inhibitor concentration. Non-linear regression was performed using a four-parameter logistic model and GraphPad Prism software. All assessments were undertaken in duplicate evaluations, which were pooled during the extraction process and subsequently injected as duplicates for LC-MS/MS analysis.
# Chain of HSD17B13 (Q7Z5P4 20-300): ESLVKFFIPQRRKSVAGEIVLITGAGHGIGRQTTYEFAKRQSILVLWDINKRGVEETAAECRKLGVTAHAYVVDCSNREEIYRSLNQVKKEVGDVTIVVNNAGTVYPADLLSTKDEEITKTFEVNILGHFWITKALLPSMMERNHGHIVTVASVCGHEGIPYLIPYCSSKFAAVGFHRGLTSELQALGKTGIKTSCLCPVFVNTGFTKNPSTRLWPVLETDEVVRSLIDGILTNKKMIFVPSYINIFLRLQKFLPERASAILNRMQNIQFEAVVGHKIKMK
# Chain of HSD17B14 (Q9BPX1 whole entry): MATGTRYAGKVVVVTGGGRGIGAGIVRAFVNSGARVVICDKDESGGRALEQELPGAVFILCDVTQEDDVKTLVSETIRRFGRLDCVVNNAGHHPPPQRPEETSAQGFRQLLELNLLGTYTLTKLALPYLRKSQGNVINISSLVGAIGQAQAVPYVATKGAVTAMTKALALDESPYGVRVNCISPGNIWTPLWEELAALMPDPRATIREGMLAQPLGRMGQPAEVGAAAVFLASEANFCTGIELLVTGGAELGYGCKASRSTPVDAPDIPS
Structure (SMILES),Ki (HSD17B13) [nM],HSD17B14 fold selectivity (HSD17B14) [fold],IC50 (HSD17B13) [nM]
O=C(Nc1sc(-c2cnccn2)nc1C(=O)NCc1ccccc1C(F)(F)F)c1cc(Cl)c(O)c(Cl)c1 [Example 100],≤ 50,>843,
CS(=O)(=O)c1cccc(-c2nc(C(=O)NCc3ccccc3C(F)(F)F)c(NC(=O)c3cc(Cl)c(O)c(Cl)c3)s2)c1 [Example 97],≤ 50,772,
CC(NC(=O)c1nc(-c2cccnc2)sc1NC(=O)c1cc(Cl)c(O)c(Cl)n1)c1ccccc1C(F)(F)F (stereo not shown) [Example 103],≤ 50,>1850,
CC(NC(=O)c1nc(-c2ccccc2)sc1NC(=O)c1cc(Cl)c(O)c(Cl)n1)c1ccccc1C(F)(F)F (stereo not shown) [Example 99],≤ 50,253,
"O=C(Nc1sc(C2CC2)nc1C(=O)NCc1ccccc1C(F)(F)F)c1cc(Cl)c(O)c(Cl)n1 [Example 59, 2-cyclopropyl-5-(4,6-dichloro-5-hydroxypicolinamido)-N-(2-(trifluoromethyl)benzyl)thiazole-4-carboxamide]",≤ 50,>331,
O=C(Nc1sc(-c2ccccc2Cl)nc1C(=O)NCc1ccccc1C(F)(F)F)c1cc(F)c(O)c(Cl)c1 [Example 89],≤ 50,688,
"O=C(Nc1sc(N2CCS(=O)(=O)CC2)nc1C(=O)NCc1ccccc1C(F)(F)F)c1cc(Cl)c(O)c(Cl)c1 [Example 79, 5-(3,5-dichloro-4-hydroxybenzamido)-2-(1,1-dioxidothiomorpholino)-N-(2-(trifluoromethyl)benzyl)thiazole-4-carboxamide]",100 to 500,,
"CC(C)CCNC(=O)c1ncsc1NC(=O)c1cc(Cl)c(O)c(Cl)n1 [Example 39, 5-(4,6-dichloro-5-hydroxypicolinamido)-N-isopentylthiazole-4-carboxamide]",,,100 to 500
"O=C(Nc1sc(-c2ccccc2F)nc1C(=O)NCc1ccccc1C(F)(F)F)c1cc(Cl)c(O)c(Cl)n1 [Example 60, 5-(4,6-dichloro-5-hydroxypicolinamido)-2-(2-fluorophenyl)-N-(2-(trifluoromethyl)benzyl) thiazole-4-carboxamide]",≤ 50,>980,
O=C(Nc1sc(C2CCCCC2)nc1C(=O)NCc1ccccc1C(F)(F)F)c1cc(Cl)c(O)c(Cl)n1 [Example 84],≤ 50,,
"Cn1ncc(C(=O)NCc2ccccc2C(F)(F)F)c1NC(=O)c1cc(Cl)c(O)c(Cl)c1 [Example 7, 5-(3,5-dichloro-4-hydroxybenzamido)-1-methyl-N-(2-(trifluoromethyl)benzyl)-1H-pyrazole-4-carboxamide]",,,1000 to 10000
CC(NC(=O)c1nc(-c2cccnc2)sc1NC(=O)c1cc(Cl)c(O)c(Cl)c1)c1ccccc1C(F)(F)F (stereo not shown) [Example 102],≤ 50,>1230,
"CS(=O)(=O)c1ccccc1CNC(=O)c1ncsc1NC(=O)c1cc(Cl)c(O)c(Cl)n1 [Example 42, 5-(4,6-dichloro-5-hydroxypicolinamido)-N-(2-(methylsulfonyl)benzyl)thiazole-4-carboxamide]",,,100 to 500
CS(=O)(=O)c1cccc(-c2nc(C(=O)NCc3ccccc3C(F)(F)F)c(NC(=O)c3cc(Cl)c(O)c(Cl)n3)s2)c1 [Example 98],≤ 50,928,
O=C(Nc1sc(-c2cnccn2)nc1C(=O)NCc1ccccc1C(F)(F)F)c1cc(Cl)c(O)c(Cl)n1 [Example 101],≤ 50,>142,
"O=C(Nc1scnc1C(=O)NCC1(F)CC1)c1cc(Cl)c(O)c(Cl)n1 [Example 36, 5-(4,6-dichloro-5-hydroxypicolinamido)-N-((1-fluorocyclopropyl)methyl)thiazole-4-carboxamide]",,,1000 to 10000
"CC(C)(C)CCNC(=O)c1ncsc1NC(=O)c1cc(Cl)c(O)c(Cl)c1 [Example 46, 5-(3,5-dichloro-4-hydroxybenzamido)-N-(3,3-dimethylbutyl)thiazole-4-carboxamide]",,,100 to 500
"Cn1ncc(NC(=O)c2cc(Cl)c(O)c(Cl)n2)c1C(=O)NCc1ccccc1OC(F)(F)F [Example 5, 4,6-dichloro-5-hydroxy-N-(1-methyl-5-((2-(trifluoromethoxy)benzyl)carbamoyl)-1H-pyrazol-4-yl)picolinamide]",,,100 to 500
"Cc1nsc(NC(=O)c2cc(Cl)c(O)c(Cl)n2)c1C(=O)NCc1ccccc1C(F)(F)F [Example 38, 5-(4,6-dichloro-5-hydroxypicolinamido)-3-methyl-N-(2-(trifluoromethyl)benzyl)isothiazole-4-carboxamide]",,,≤ 100
O=C(Nc1sc(-c2cc[nH]n2)nc1C(=O)NCc1ccccc1C(F)(F)F)c1cc(Cl)c(O)c(Cl)n1 [Example 71],≤ 50,,
"O=C(Nc1ncc(C(=O)NCc2ccccc2C(F)(F)F)s1)c1cc(Cl)c(O)c(Cl)n1 [Example 28, 2-(4,6-dichloro-5-hydroxypicolinamido)-N-(2-(trifluoromethyl)benzyl)thiazole-5-carboxamide]",,,1000 to 10000
"O=C(Nc1sc(-c2ccccc2)nc1C(=O)NCc1ccccc1C(F)(F)F)c1cc(Cl)c(O)c(Cl)n1 [Example 23, 5-(4,6-dichloro-5-hydroxypicolinamido)-2-phenyl-N-(2 (trifluoromethyl)benzyl)thiazole-4-carboxamide]",,,≤ 100
CN1CCC(c2nc(C(=O)NCc3ccccc3C(F)(F)F)c(NC(=O)c3cc(Cl)c(O)c(Cl)c3)s2)CC1 [Example 87],100 to 500,,
"O=C(Nc1scnc1C(=O)NCC12CC3CC(CC(C3)C1)C2)c1cc(Cl)c(O)c(Cl)n1 [Example 30, N-(adamantan-1-ylmethyl)-5-(4,6-dichloro-5-hydroxypicolinamido)thiazole-4-carboxamide]",,,100 to 500
"Cn1cc(C(=O)NCCC(C)(C)C)c(NC(=O)c2cc(Cl)c(O)c(Cl)c2)n1 [Example 53, 3-(3,5-dichloro-4-hydroxybenzamido)-N-(3,3-dimethylbutyl)-1-methyl-1H-pyrazole-4-carboxamide]",,,500 to 1000
"O=C(Nc1nn(-c2ccccc2)cc1C(=O)NCc1ccccc1C(F)(F)F)c1cc(Cl)c(O)c(Cl)n1 [Example 8, 4,6-dichloro-5-hydroxy-N-(1-phenyl-4-((2-(trifluoromethyl)benzyl)carbamoyl)-1H-pyrazol-3-yl)picolinamide]",,,100 to 500
"O=C(Nc1ccc(F)c2nnn(Cc3ccccc3C(F)(F)F)c(=O)c12)c1cc(Cl)c(O)c(Cl)c1 [Example 14, 3,5-dichloro-N-(8-fluoro-4-oxo-3-(2-(trifluoromethyl)benzyl)-3,4-dihydrobenzo[d][1,2,3]triazin-5-yl)-4-hydroxybenzamide]",,,≤ 100
